Measurements taken from patent US9611268B2, “Modulators of toll-like receptor 7” (Gilead Sciences, Inc., priority 2007, dated 2017).

Test system: human Peripheral Blood Mononuclear Cell (PMBC)
Test: PBMC Assay, cytokine stimulation (IFNα)
Type: cell-based
Details: concentration at which the compound stimulated maximum IFN α production, 24 hours, read-out: IFN ECmax values
Experimental: Assays were conducted to determine cytokine stimulation at 24 hours from human Peripheral Blood Mononuclear Cell (PMBC) using the compounds of the present invention. The assays were run in duplicate, with 8-point, half-log dilution curves. The compounds of the present invention were diluted from […] DMSO solution. Cell supernatants are assayed directly for IFNα and 1:10 dilution for TNFα. The assays were performed in a similar fashion as described in Bioorg. Med. Chem. Lett. 16, 4559, (2006). Specifically, cryo-preserved PBMCs were thawed and seeded 96 well plates with 750,000 cells/well in 190 μL/well cell media. The PBMCs were then incubated for 1 hour at 37° C. at 5% CO2. Then, the compounds of the present invention were added in 10 μL cell media at 8 point, half-log dilution titration. The plates were incubated at 37° C. and 5% CO2 for 24 hours and then spinned at 1200 rpm for 10 min, which was followed by collecting supernatant and storing the same at −80° C. Cytokine secretion was assayed with Luminex and Upstate multi-plex kits, using a Luminex analysis instrument. IFN ECmax value for a compound was the concentration at which the compound stimulated maximum IFN α production as determined using the assay method above.

`COCCOc1nc(N)c2nc(O)n(Cc3cccc(CN4CCCC4)c3)c2n1` [Example A, 6-Amino-2-(2-methoxy-ethoxy)-9-(3-pyrrolidin-1-ylmethyl-benzyl)-9H-purin-8-ol] was tested, and the EC (max) was < 0.005 µM.

With `COCCOc1nc(N)c2nc(O)n(Cc3cc(CN4CCCC4)cc(C(F)(F)F)c3)c2n1` [Example AQ] the EC (max) was < 0.005 µM.

With `COCCOc1nc(N)c2nc(O)n(Cc3cc(CN4CCCCC4)cc(C(F)(F)F)c3)c2n1` [Example AS] the EC (max) was < 0.005 µM.

For `Nc1nc(OCCC2CC2)nc2c1nc(O)n2Cc1cccc(CN2CCCC2)c1` [Example AU], the EC (max) was < 0.005 µM.

For `Nc1nc(OCC2CCC2)nc2c1nc(O)n2Cc1cccc(CN2CCCC2)c1` [Example AV], the EC (max) was < 0.005 µM.

`Nc1nc(OCC2CC2)nc2c1nc(O)n2Cc1cccc(CN2CCCC2)c1` [Example AW] was tested, and the EC (max) was < 0.005 µM.

With `COCCOc1nc(N)c2nc(O)n(Cc3cccc(CNCC4CCCCC4)c3)c2n1` [Example AZ] the EC (max) was < 0.005 µM.

With `CCCCOc1nc(N)c2nc(O)n(Cc3cccc(CN4CCC4)c3)c2n1` [Example BE] the EC (max) was < 0.005 µM.

`Nc1nc(OCCC(F)(F)F)nc2c1nc(O)n2Cc1cccc(CN2CCCC2)c1` [Example BH] was tested, and the EC (max) was < 0.005 µM.

With `Nc1nc(OC2CCCC2)nc2c1nc(O)n2Cc1cccc(CN2CCCC2)c1` [Example BM] the EC (max) was < 0.005 µM.

With `COCCOc1nc(N)c2nc(O)n(Cc3cccc(CN4CCN(C)CC4)c3)c2n1` [Example C, 6-Amino-2-(2-methoxy-ethoxy)-9-[3-(4-methyl-piperazin-1-ylmethyl)-benzyl]-9H-purin-8-ol] the EC (max) was < 0.005 µM.

In the case of `COCCOc1nc(N)c2nc(O)n(Cc3cccc(CNCC4CC4)c3)c2n1` [Example D, 6-Amino-9-{3-[(cyclopropylmethyl-amino)-methyl]-benzyl}-2-(2-methoxy-ethoxy)-9H-purin-8-ol], the EC (max) is reported as < 0.005 µM.

For `COCCOc1nc(N)c2nc(O)n(Cc3cccc(CN4CC(C)CC(C)C4)c3)c2n1` (stereo not shown) [Example F, 6-Amino-9-[3-(3,5-dimethyl-piperidin-1-ylmethyl)-benzyl]-2-(2-methoxy-ethoxy)-9H-purin-8-ol], the EC (max) was < 0.005 µM.

For `COCCOc1nc(N)c2nc(O)n(Cc3cccc(CN4CCCCC4)c3)c2n1` [Example J, 6-Amino-2-(2-methoxy-ethoxy)-9-(3-piperidin-1-ylmethyl-benzyl)-9H-purin-8-ol], the EC (max) was < 0.005 µM.

In the case of `COCCOc1nc(N)c2nc(O)n(Cc3cccc(CN4CCC4)c3)c2n1` [Example N, 9-(3-(azetidin-1-ylmethyl)benzyl)-6-amino-2-(2-methoxyethoxy)-9H-purin-8-ol], the EC (max) is reported as < 0.005 µM.

`COCCOc1nc(N)c2nc(OC(=O)OC(C)C)n(Cc3cccc(CN4CCCC4)c3)c2n1` [Example R, 9-(3-(pyrrolidin-1-ylmethyl)benzyl)-6-amino-2-(2-methoxyethoxy)-9H-purin-8-yl isopropyl carbonate] was tested, and the EC (max) was < 0.005 µM.
